# Marks after values point to notes of the source that are not given here. Starred links: 1 amine or outer side, 2 acyl side, 3 side chain; linkers in the order of their positions; H or OH if unused. Non-standard residues stand in square brackets, D forms with d. Residues, ends and D or L forms follow the SMILES beside them. No end group written: not given here. X3 = N[C@@H](Cc1ccccc1)CN(CC(=O)[*:2])[*:1]
# Assays:
# NOP receptor = assay: NOP bias factor, G protein vs β-arrestin 2 (Black–Leff operational model); conditions: for BIAS FACTOR: supplementary CSV (molecular formula strings), repeats Tables 1–7 without confidence limits; for bias factor (CL95%), NOP: ΔΔlog(τ/KA) G protein minus β-arrestin 2, N/OFQ(1–13)-NH2 as standard unbiased ligand, positive = toward G protein, mean of at least five experiments
# Excerpt: The concentration–response curves of each compound were fitted to the Black–Leff operational model, described by Nagi and Pineyro[70] [drawing 3] where [A] is the agonist concentration, the maximal response of the system is given by Em, n is a fitting parameter for the slope, the affinity of the agonist is represented by the equilibrium dissociation constant of the agonist–receptor complex (KA), and the efficacy of the agonist is defined by τ. τ and KA are descriptive parameters of intrinsic efficacy and binding affinity and may be directly obtained by fitting the experimental data to the operational equation and can be expressed as “transduction coefficients” log(τ/KA). The relative efficiency of agonists producing activation of any pathways can thus be quantified with a “normalized” transduction coefficient, namely Δlog(τ/KA). Finally, the bias factors were calculated as difference between Δlog(τ/KA) values for a given agonist between the pathways (G protein and β-arrestin 2) [drawing 4]
# Bias factors are expressed as the mean of at least five independent experiments, and CL95% are indicated. Biased factor is considered to be statistically different from 0 when 0 is not included in CL95%. α values have been statistically analyzed with one-way analysis of variance (ANOVA) followed by the Dunnett post hoc test for multiple comparisons; P values less than 0.05 were considered to be statistically significant.
# [1] = target: T1, NOP receptor (NOP-RLuc/β-arrestin 2-RGFP) (Homo sapiens, UniProt P41146); assay: NOP/β-arrestin 2 interaction, BRET assay in whole cells; type: cell-based; conditions: for NOP/β-arrestin 2 α ± sem (intrinsic activity): Emax of ligand / Emax of N/OFQ(1–13)-NH2, mean ± sem of five experiments in duplicate; for NOP/β-arrestin 2 pEC50 (CL95%): BRET, whole HEK293 cells co-expressing NOP-RLuc/β-arrestin 2-RGFP, 100,000 cells/well, room temperature, mean of five independent experiments in duplicate, 95% confidence limits
# T1 construct: expressed in transfected cells; host or cells: HEK293 (whole cells)
# Method: (§1) For this study, human embryonic kidney (HEK293) cells, permanently co-expressing the different pairs of fusion proteins NOP-RLuc/Gβ1-RGFP and NOP-RLuc/β-arrestin 2-RGFP, and SH-SY5Y cells stably, co-expressing the different pairs of fusion proteins mu-RLuc/Gβ1-RGFP and mu-RLuc/β-arrestin 2-RGFP or delta-RLuc/Gβ1-RGFP and delta-RLuc/β-arrestin 2-RGFP, were used. Cells were prepared and cultured, as described previously.[19],[23] Cells were grown in Dulbecco’s modified Eagle’s medium (DMEM)/HAMS F12 (1:1) supplemented with 10% fetal bovine serum, penicillin G (100 units/mL), streptomycin (100 μg mL^–1), L-glutamine (2 mM), fungizone (1 μg mL^–1), geneticin (G418; 200 μg mL^–1), and hygromycin B (100 μg mL^–1) in a humidified atmosphere of 5% CO2 at 37 °C. For G protein experiments, enriched plasma membrane aliquots from transfected cells were prepared by differential centrifugation; cells were detached with phosphate buffered saline (PBS)/EDTA solution (1 mM, pH 7.4 NaOH), then, after 5 min 500g centrifugation, Dounce-homogenized (30 strokes) in cold homogenization buffer (tris(hydroxymethyl)aminomethane 5 mM, EGTA 1 mM, DTT 1 mM, pH 7.4 HCl) in the presence of sucrose (0.32 M). Three following centrifugations were performed at 10 min 1000g (4 °C), and the supernatants were kept. Two 20 min 24,000g (4 °C) subsequent centrifugations (the second in the absence of sucrose) were performed for separating enriched membranes that, after discarding the supernatant, were kept in ultrapure water at −80 °C.[67] The protein concentration in membrane preparations was determined using the QPRO-BCA kit (Cyanagen Srl, Bologna, IT) and the Ensight (PerkinElmer, Waltham, USA) in the spectrophotometer mode.
# (§2) Luminescence in membranes was recorded in 96-well untreated white opaque microplates, while in whole cells, it was recorded in 96-well sterile poly-D-lysine-coated white opaque microplates (PerkinElmer, Waltham, MA, USA) using the luminometer Victor 2030 (PerkinElmer, Waltham, MA, USA). For the determination of receptor/G protein interactions, membranes (3 μg of protein) prepared from cells co-expressing NOP (or mu or delta)/RLuc and Gβ1/RGFP were added to wells in DPBS. For the determination of receptor/β-arrestin 2 interactions, cells co-expressing NOP (or mu or delta)/RLuc and β-arrestin 2/RGFP were plated 24 h before the experiment in poly-D-lysine-treated plates (100,000 cells/well). The cells were prepared for the experiment substituting the medium with PBS with MgCl2 (0.5 mM) and CaCl2 (0.9 mM). Coelenterazine at a final concentration of 5 μM was injected 15 min prior to reading the cell plate. Different concentrations of ligands in 20 μL of PBS–BSA 0.01% were added and incubated 5 min before reading luminescence. […] The BRET ratio was measured 15 min after agonist injection. All experiments were performed at room temperature.
# (§3) The pharmacological terminology adopted in this paper is consistent with IUPHAR recommendations.[68] All data are expressed as the mean ± sem of five independent experiments made in duplicate. […] Ligand efficacy was expressed as intrinsic activity (α), calculated as the ratio between the Emax of the ligand and that of the standard agonist. Count per second (CPS) measured for the RGFP and RLuc light emitted using 510(10) and 460(25) filters (PerkinElmer, Waltham, MA), respectively, was used to calculate the BRET ratio. All data are expressed as the stimulated BRET ratio, that is, the ratio between CPS from RGFP and RLuc in the presence of ligands minus the BRET ratio in vehicle-treated wells. […] Concentration–response curves to agonists were fitted to the classical four-parameter logistic nonlinear regression model [drawing 1]
# (§4) Curves fitting were performed using PRISM 6.0 (GraphPad Software In., San Diego, USA).
# [2] = target: T2, NOP receptor (NOP-RLuc/Gβ1-RGFP) (Homo sapiens, UniProt P41146); assay: NOP/G protein interaction, BRET assay in membranes; type: biochemical; conditions: for NOP/G protein pEC50 (CL95%): BRET, membranes (3 μg protein) from HEK293 cells co-expressing NOP-RLuc/Gβ1-RGFP, room temperature, mean of five independent experiments in duplicate, 95% confidence limits; for NOP/G protein CR (concentration ratio): ratio between EC50 of the ligand and that of the standard agonist N/OFQ(1–13)-NH2
# T2 construct: expressed in transfected cells; host or cells: HEK293 (enriched plasma membranes)
# Method: as §1, §2, §3, §4
# T1 sequence (P41146 whole entry): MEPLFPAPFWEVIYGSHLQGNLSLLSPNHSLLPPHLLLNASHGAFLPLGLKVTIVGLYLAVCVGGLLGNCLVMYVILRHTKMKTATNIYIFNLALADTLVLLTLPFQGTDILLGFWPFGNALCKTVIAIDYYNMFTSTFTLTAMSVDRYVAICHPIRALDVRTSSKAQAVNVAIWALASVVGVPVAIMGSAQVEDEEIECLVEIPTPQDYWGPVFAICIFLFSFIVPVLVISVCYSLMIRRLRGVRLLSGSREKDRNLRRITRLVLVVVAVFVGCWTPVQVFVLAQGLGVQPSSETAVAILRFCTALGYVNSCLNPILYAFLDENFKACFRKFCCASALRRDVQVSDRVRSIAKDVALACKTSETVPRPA
# T2 sequence (P41146 whole entry): as above
Molecule,BIAS FACTOR (NOP receptor),"bias factor (CL95%), NOP (NOP receptor)",NOP/β-arrestin 2 pEC50 (CL95%) [1],further results
"C[C@H](NC(=O)[C@H](CO)NC(=O)[C@H](CCCCN)NC(=O)[C@H](CCCNC(=N)N)NC(=O)[C@@H](C)NC(=O)CNC(=O)[C@@H](NC(=O)[C@H](Cc1ccccc1)NC(=O)CNC(=O)CNC(=O)[C@@H](N)Cc1ccccc1)[C@@H](C)O)C(=O)N[C@@H](CCCNC(=N)N)C(=O)N[C@@H](CCCCN)C(N)=O [Compound 15, [DAla^7]N/OFQ(1–13)-NH2]",0.21,0.21 (−0.28–0.70),,
"C[C@H](NC(=O)CNC(=O)[C@@H](NC(=O)[C@H](Cc1ccccc1)NC(=O)CNC(=O)CNC(=O)[C@@H](N)Cc1ccccc1)[C@@H](C)O)C(=O)N[C@H](CCCNC(=N)N)C(=O)N[C@@H](CCCCN)C(=O)N[C@@H](CO)C(=O)N[C@@H](C)C(=O)N[C@@H](CCCNC(=N)N)C(=O)N[C@@H](CCCCN)C(N)=O [Compound 16, [DArg^8]N/OFQ(1–13)-NH2]",,0.26 (−0.25–0.77),,
"C[C@H](NC(=O)CNC(=O)[C@@H](NC(=O)[C@H](Cc1ccccc1)NC(=O)CNC(=O)CNC(=O)[C@@H](N)Cc1ccccc1)[C@@H](C)O)C(=O)N[C@@H](CCCNC(=N)N)C(=O)N[C@@H](CCCCN)C(=O)N[C@H](CO)C(=O)N[C@@H](C)C(=O)N[C@@H](CCCNC(=N)N)C(=O)N[C@@H](CCCCN)C(N)=O [Compound 18, [DSer^10]N/OFQ(1–13)-NH2]",-0.07,–0.07 (−0.52–0.39),,
"C[C@H](NC(=O)CNC(=O)[C@@H](NC(=O)[C@H](Cc1ccccc1)NC(=O)CNC(=O)CNC(=O)[C@@H](N)Cc1ccccc1)[C@@H](C)O)C(=O)N[C@@H](CCCNC(=N)N)C(=O)N[C@@H](CCCCN)C(=O)N[C@@H](CO)C(=O)N[C@H](C)C(=O)N[C@@H](CCCNC(=N)N)C(=O)N[C@@H](CCCCN)C(N)=O [Compound 19, [DAla^11]N/OFQ(1–13)-NH2]",0.14,0.14 (−0.31–0.60),,
"C[C@H](NC(=O)CNC(=O)[C@@H](NC(=O)[C@H](Cc1ccccc1)NC(=O)CNC(=O)CNC(=O)[C@@H](N)Cc1ccccc1)[C@@H](C)O)C(=O)N[C@@H](CCCNC(=N)N)C(=O)N[C@@H](CCCCN)C(=O)N[C@@H](CO)C(=O)N[C@@H](C)C(=O)N[C@H](CCCNC(=N)N)C(=O)N[C@@H](CCCCN)C(N)=O [Compound 20, [DArg^12]N/OFQ(1–13)-NH2]",,0.26 (−0.19–0.71),,
"C[C@H](NC(=O)CNC(=O)[C@@H](NC(=O)[C@H](Cc1ccccc1)NC(=O)CNC(=O)CNC(=O)[C@@H](N)Cc1ccccc1)[C@@H](C)O)C(=O)N[C@@H](CCCNC(=N)N)C(=O)N[C@@H](CCCCN)C(=O)N[C@@H](CO)C(=O)N[C@@H](C)C(=O)N[C@@H](CCCNC(=N)N)C(=O)N[C@H](CCCCN)C(N)=O [Compound 21, [DLys^13]N/OFQ(1–13)-NH2]",0.03,0.03 (−0.42–0.48),,
"C[C@H](NC(=O)CNC(=O)[C@@H](NC(=O)[C@H](Cc1ccccc1)NC(=O)CNC(=O)CNC(=O)[C@@H](N)CC1CCCCC1)[C@@H](C)O)C(=O)N[C@@H](CCCNC(=N)N)C(=O)N[C@@H](CCCCN)C(=O)N[C@@H](CO)C(=O)N[C@@H](C)C(=O)N[C@@H](CCCNC(=N)N)C(=O)N[C@@H](CCCCN)C(N)=O [Compound 22, [Cha^1]N/OFQ(1–13)-NH2]",0.20,0.20 (−0.36–0.76),,NOP/β-arrestin 2 α ± sem (intrinsic activity) [1]: 1.03 ± 0.05
"C[C@H](NC(=O)CNC(=O)[C@@H](NC(=O)[C@H](Cc1ccccc1)NC(=O)CNC(=O)CNC[C@@H](N)Cc1ccccc1)[C@@H](C)O)C(=O)N[C@@H](CCCNC(=N)N)C(=O)N[C@@H](CCCCN)C(=O)N[C@@H](CO)C(=O)N[C@@H](C)C(=O)N[C@@H](CCCNC(=N)N)C(=O)N[C@@H](CCCCN)C(N)=O [Compound 30, [Phe^1ψ(CH2–NH)Gly^2]N/OFQ(1–13)-NH2] (H-[X3]GFTGARKSARK-NH2)",,,Inactive,
"FAGFTGARKSARK-NH2 [Compound 2, [Ala^2]N/OFQ(1–13)-NH2]",,,inactive,"NOP/G protein pEC50 (CL95%) [2]: 6.36 (5.89–6.83); NOP/G protein α ± sem (intrinsic activity) ([2]; Emax of ligand / Emax of N/OFQ(1–13)-NH2, mean ± sem of five experiments in duplicate): 0.54 ± 0.07 ^a; NOP/G protein CR (concentration ratio) [2]: 275"
"FGGWTGARKSARK-NH2 [Compound 24, [Trp^4]N/OFQ(1–13)-NH2]",0.11,0.11 (−0.43–0.65),,NOP/β-arrestin 2 α ± sem (intrinsic activity) [1]: 0.77 ± 0.03 ^a
[AC3C^7]N/OFQ-NH2 [Compound 36],0.40,0.40 (−0.11–0.90),,
[AC5C^7]N/OFQ-NH2 [Compound 37],0.08,0.08 (−0.41–0.58),,
[AC5C^11]N/OFQ-NH2 [Compound 38],0.31,0.31 (−0.19–0.81),,
[Aib^11]N/OFQ-NH2 [Compound 35],0.29,0.29 (−0.20–0.79),,
[Ala^1]N/OFQ(1–13)-NH2 (AGGFTGARKSARK-NH2) [Compound 1],,,inactive,NOP/G protein pEC50 (CL95%) [2]: Crc incomplete; NOP/G protein CR (concentration ratio) [2]: ∼700
[Ala^4]N/OFQ(1–13)-NH2 (FGGATGARKSARK-NH2) [Compound 4],,,inactive,NOP/G protein pEC50 (CL95%) [2]: Crc incomplete; NOP/G protein CR (concentration ratio) [2]: ∼1000
[Ala^8]N/OFQ(1–13)-NH2 (FGGFTGAAKSARK-NH2) [Compound 7],,,inactive,NOP/G protein pEC50 (CL95%) [2]: Crc incomplete; NOP/G protein CR (concentration ratio) [2]: ∼1000
[Cys(X)^14]N/OFQ(1-14)-NH2 [Compound 49] (chain 1 FGGFTGARKSARKC; chain 2 KKKKKK) [(Lys)6 moiety],,,8.22 (8.03-8.40),NOP/G protein pEC50 (CL95%) [2]: 10.06 (9.79-10.34)
